The values that follow come from patent US20200360386A1, “Inhibitors of HSP90, PI3-Kinase, Proteasome, HDAC, and P97 Pathways for Selective Removal of Senescent Cells in the Treatment of Age Related Conditions” (Unity Biotechnology, Inc., priority 2017, published 2020).

Each structure is given as a SMILES string.

Format in all cases: in vivo, mouse
For data set [1], the system named is 3MR or INK-ATTAC mice exposed to cigarette smoke. Put plainly: Cigarette smoke induced COPD model, oxygen saturation by pulse oximeter. The settings on record: after two months of cigarette smoke exposure, compared with untreated controls; FIG. 6. On the procedure:
As a model for chronic obstructive pulmonary disease (COPD), mice were exposed to cigarette smoke. The effect of a senolytic agent on the mice exposed to smoke is assessed by senescent cell clearance, lung function, and histopathology.
The mice used in this study include the 3MR strain, described in US 2017/0027139 A1 and in Demaria et al., Dev Cell. 2014 Dec. 22; 31 (6): 722-733. The 3MR mouse has a transgene encoding thymidine kinase that converts the prodrug gancyclovir (GCV) to a compound that is lethal to cells. The enzyme in the transgene is placed under control of the p16 promoter, which causes it to be specifically expressed in senescent cells. Treatment of the mice with GCV eliminates senescent cells.
Other mice used in this study include the INK-ATTAC strain, described in US 2015/0296755 A1 and in Baker et al., Nature 2011 Nov. 2; 479 (7372):232-236. The INK-ATTAC mouse has a transgene encoding switchable caspase 8 under control of the p16 promoter. The caspase 8 can be activated by treating the mice with the switch compound AP20187, whereupon the caspase 8 directly induces apoptosis in senescent cells, eliminating them from the mouse.
To conduct the experiment, six-week-old 3MR (n=35) or INK-ATTAC (n=35) mice were chronically exposed to cigarette smoke generated from a Teague TE-10 system, an automatically-controlled cigarette smoking machine that produces a combination of side-stream and mainstream cigarette smoke in a chamber, which is transported to a collecting and mixing chamber where varying amounts of air is mixed with the smoke mixture. The COPD protocol was adapted from the COPD core facility at Johns Hopkins University (Rangasamy et al., 2004, J. Clin. Invest. 114:1248-1259; Yao et al., 2012, J. Clin. Invest. 122:2032-2045).
Mice received a total of 6 hours of cigarette smoke exposure per day, 5 days a week for 6 months. Each lighted cigarette (3R4F research cigarettes containing 10.9 mg of total particulate matter (TPM), 9.4 mg of tar, and 0.726 mg of nicotine, and 11.9 mg carbon monoxide per cigarette [University of Kentucky, Lexington, Ky.]) was puffed for 2 seconds and once every minute for a total of 8 puffs, with the flow rate of 1.05 L/min, to provide a standard puff of 35 cm^3. […] The smoke chamber atmosphere was monitored for total suspended particulates (80-120 mg/m3) and carbon monoxide (350 ppm). […]
After two months of cigarette smoke (CS) exposure, lung function was assessed by monitoring oxygen saturation using the MouseSTAT PhysioSuite™ pulse oximeter (Kent Scientific). […] Mice were monitored for 30 seconds and the average peripheral capillary oxygen saturation (SpO2) measurement over this duration was calculated.

The subject of data set [2] is C57BL/6J mice, osteoarthritis induced by ACL surgery. Put plainly: Osteoarthritis model: anterior cruciate ligament surgery, intra-articular treatment. On the procedure:
The model was implemented as follows. C57BL/6J mice underwent surgery to cut the anterior cruciate ligament of one rear limb to induce osteoarthritis in the joint of that limb. During week 3 and week 4 post-surgery, the mice were treated with 5.8 μg of Nutlin-3A (n=7) per operated knee by intra-articular injection, q.o.d. for 2 weeks. At the end of 4 weeks post-surgery, joints of the mice were monitored for presence of senescent cells, assessed for function, monitored for markers of inflammation, and underwent histological assessment.
Two control groups of mice were included in the studies performed: one group comprising C57BL/6J or 3MR mice that had undergone a sham surgery (n=3) (i.e., surgical procedures followed except for cutting the ACL) and intra-articular injections of vehicle parallel to the GCV (gancyclovir) treated group; and one group comprising C57BL/6J or 3MR mice that had undergone an ACL surgery and received intra-articular injections of vehicle (n=5) parallel to the GCV-treated group. RNA from the operated joints of mice from the Nutlin-3A treated mice was analyzed for expression of SASP factors (mmp3, IL-6) and senescence markers (p16). qRT-PCR was performed to detect mRNA levels.
Function of the limbs was assessed 4 weeks post-surgery by a weight bearing test to determine which leg the mice favored. The mice were allowed to acclimate to the chamber on at least three occasions prior to taking measurements. Mice were maneuvered inside the chamber to stand with one hind paw on each scale. The weight that was placed on each hind limb was measured over a three second period. At least three separate measurements were made for each animal at each time point. The results were expressed as the percentage of the weight placed on the operated limb versus the contralateral unoperated limb.

In data set [3] the test system is LDLR-/- mice fed a high fat diet. Put plainly: Atherosclerosis model: LDLR-/- mice on high fat diet, systemic treatment. On the procedure:
This example illustrates the testing of an MDM2 inhibitor in a mouse model for treatment of atherosclerosis. The test compounds are administered systemically rather than locally. The model is done in an LDLR−/− strain of mice, which are deficient in the receptor for low-density lipoprotein. The experiments described here can be adapted mutatis mutandis to test and develop other types of inhibitors for use in clinical therapy.
Two groups of LDLR−/− mice (10 weeks) are fed a high fat diet (HFD) (Harlan Teklad TD.88137) having 42% calories from fat, beginning at Week 0 and throughout the study. Two groups of LDLR−/− mice (10 weeks) are fed normal chow (−HFD). From weeks 0-2, one group of HFD mice and −HFD mice are treated with Nutlin-3A (25 mg/kg, intraperitoneally). One treatment cycle is 14 days treatment, 14 days off. Vehicle is administered to one group of HFD mice and one group of −HFD mice. At week 4 (timepoint 1), one group of mice are sacrificed and to assess presence of senescent cells in the plaques. For the some of the remaining mice, Nutlin-3A and vehicle administration is repeated from weeks 4-6. At week 8 (timepoint 2), the mice are sacrificed and to assess presence of senescent cells in the plaques. The remaining mice are treated with Nutlin-3A or vehicle from weeks 8-10. At week 12 (timepoint 3), the mice are sacrificed and to assess the level of plaque and the number of senescent cells in the plaques.
Plasma lipid levels were measured in LDLR−/− mice fed a HFD and treated with Nutlin-3A or vehicle at timepoint 1 as compared with mice fed a −HFD (n=3 per group). Plasma was collected mid-afternoon and analyzed for circulating lipids and lipoproteins.
At the end of timepoint 1, LDLR−/− mice fed a HFD and treated with Nutlin-3A or vehicle were sacrificed (n=3, all groups), and the aortic arches were dissected for RT-PCR analysis of SASP factors and senescent cell markers. Values were normalized to GAPDH and expressed as fold-change versus age-matched, vehicle-treated LDLR−/− mice on a normal diet.
At the end of timepoint 2, LDLR−/− mice fed a HFD and treated with Nutlin-3A or vehicle (n=3 for all groups) were sacrificed, and aortic arches were dissected for RT-PCR analysis of SASP factors and senescent cell markers. Values were normalized to GAPDH and expressed as fold-change versus age-matched, vehicle-treated LDLR−/− mice on a normal diet.
At the end of timepoint 3, LDLR−/− mice fed a HFD and treated with Nutlin-3A or vehicle (n=3 for all groups) were sacrificed, and aortas were dissected and stained with Sudan IV to detect the presence of lipid. Body composition of the mice was analyzed by MRI, and circulating blood cells were counted by Hemavet™.

For the molecule `CC1(C)CCC(c2ccc(Cl)cc2)=C(CN2CCN(c3ccc(C(=O)NS(=O)(=O)c4ccc(N[C@H](CCN5CCOCC5)CSc5ccccc5)c(S(=O)(=O)C(F)(F)F)c4)cc3)CC2)C1` [ABT-263, Navitoclax], in data set [1], the “SpO2 levels (peripheral capillary oxygen saturation)” value (“SpO2 levels” below) was “statistically significant increases”.

`CC[C@H](C(=O)N1CCCC[C@H]1C(=O)O[C@H](CCc1ccc(OC)c(OC)c1)c1cccc(OCC(=O)NCC(CNC(=O)COc2cccc([C@@H](CCc3ccc(OC)c(OC)c3)OC(=O)[C@@H]3CCCCN3C(=O)[C@@H](CC)c3cc(OC)c(OC)c(OC)c3)c2)CN(C)C)c1)c1cc(OC)c(OC)c(OC)c1` [AP2018]: the “SpO2 levels” value in data set [1] was “statistically significant increases”.

On to `COc1ccc(C2=N[C@@H](c3ccc(Cl)cc3)[C@@H](c3ccc(Cl)cc3)N2C(=O)N2CCNC(=O)C2)c(OC(C)C)c1` [Nutlin-3A], for which the “SpO2 levels” value in data set [1] was “statistically significant increases”. In addition, in data set [2] (5.8 μg per operated knee intra-articular q.o.d. for 2 weeks, 4 weeks post-surgery, FIG. 3A), the “expression of p16 in the joint tissue (qRT-PCR)” value is recorded as “reduced the expression back to below the level of the controls”. Also, in data set [2] (5.8 μg per operated knee intra-articular q.o.d. for 2 weeks, 4 weeks post-surgery, FIG. 3B), the “expression of IL-6 in the joint tissue (qRT-PCR)” value is “reduced the expression back to below the level of the controls”. Further, the “expression of MMP13 in the joint tissue (qRT-PCR)” value in data set [2] (5.8 μg per operated knee intra-articular q.o.d. for 2 weeks, 4 weeks post-surgery, FIG. 3C) is “reduced the expression back to below the level of the controls”. For the same molecule, the “weight bearing test: favoring of the unoperated hind limb over the operated hind limb” value in data set [2] (4 weeks post-surgery, FIG. 4A) was “abrogated this effect”. For the same molecule, the “histopathology: destruction of the proteoglycan layer of the joint” value in data set [2] (FIGS. 4B-4D) is listed as “completely abrogated this effect”. Moreover, in data set [3] (25 mg/kg intraperitoneally, timepoint 1 (week 4), after one treatment cycle), the “expression of SASP factors and senescent cell markers in aortic arch (RT-PCR): MMP3, MMP13, PAI1, p21, IGFBP2, IL-1A, IL-1B” value is “reduced expression of several SASP factors and senescent cell markers”. Also, the “expression of SASP factors and senescent cell markers in aortic arch (RT-PCR)” value in data set [3] (25 mg/kg intraperitoneally, timepoint 2 (week 8), multiple treatment cycles) is given as “reduced expression of most markers”. For the same molecule, the “reduction of surface area covered by plaques in the descending aorta” value in data set [3] (25 mg/kg intraperitoneally, timepoint 3 (week 12), Sudan IV staining, FIG. 7) is “about 45%”. Moreover, the “platelet and lymphocyte counts versus vehicle treated mice” value in data set [3] (timepoint 3 (week 12), Hemavet) was “equivalent”. In data set [3] (timepoint 3 (week 12), MRI, mice fed the high fat diet), the “mass and body fat composition” value is “decreased mass and body fat composition”.

Take `Nc1nc(O)c2ncn(COC(CO)CO)c2n1` [ganciclovir]: in data set [1], the “SpO2 levels” value is listed as “statistically significant increases”.
